What was measured:
CYP2E1 = CYP2E1 (Homo sapiens, UniProt P05181); experiment: Time dependent inhibition of CYP2E1 activity in human hepatocytes after 30 mins by liquid chromatography/tandem mass spectroscopy; type: ADME, cell-based, Hepatocyte
Hepatocyte [1] = experiment: Cytotoxicity against human hepatocytes assessed as reduction in cell viability after 24 hrs by ATP detection based assay
CYP2D6 = CYP2D6 (Homo sapiens, UniProt P10635); experiment: Time dependent inhibition of CYP2D6 activity in human hepatocytes after 30 mins by liquid chromatography/tandem mass spectroscopy; type: ADME, cell-based, Hepatocyte
Hepatocyte [2] = experiment: Cytotoxicity against human hepatocytes assessed as reduction in cell viability after 24 hrs by LDH release assay; type: cell-based
CYP2B6 [3] = biological target: T1, CYP2B6 (Homo sapiens, UniProt P20813); experiment: Time dependent inhibition of CYP2B6 activity in human hepatocytes after 30 mins by liquid chromatography/tandem mass spectroscopy; type: ADME, cell-based, Hepatocyte
T1 sequence (P20813 whole entry): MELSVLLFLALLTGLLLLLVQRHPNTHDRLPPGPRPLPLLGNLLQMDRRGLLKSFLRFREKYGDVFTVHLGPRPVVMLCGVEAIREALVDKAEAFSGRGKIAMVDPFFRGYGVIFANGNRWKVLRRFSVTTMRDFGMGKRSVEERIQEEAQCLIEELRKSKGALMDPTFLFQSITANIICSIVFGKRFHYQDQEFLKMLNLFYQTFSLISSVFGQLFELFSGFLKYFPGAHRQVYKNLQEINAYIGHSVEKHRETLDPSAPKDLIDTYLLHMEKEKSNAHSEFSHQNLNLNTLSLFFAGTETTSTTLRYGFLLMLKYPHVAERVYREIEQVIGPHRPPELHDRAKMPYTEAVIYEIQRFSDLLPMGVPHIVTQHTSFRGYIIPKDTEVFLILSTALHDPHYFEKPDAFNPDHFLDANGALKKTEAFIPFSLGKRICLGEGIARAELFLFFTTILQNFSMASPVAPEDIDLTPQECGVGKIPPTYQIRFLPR

Hepatocyte [4] = experiment: Cytotoxicity against human hepatocytes assessed as loss of nuclei after 24 hrs at 50 to 100 uM; type: cell-based
CYP2B6 [5] = experiment: Induction of CYP2B6 mRNA expression in human hepatocytes at 10 uM after 48 hrs relative to untreated control; type: ADME, cell-based, Hepatocyte; conditions: read-out: FC
Hepatocyte [6] = experiment: Induction of apoptosis in human hepatocytes assessed as caspase 3/7 activation by caspase-Glo 3/7 assay; type: cell-based
Cytochrome P450 3A4 = Cytochrome P450 3A4 (Homo sapiens, UniProt P08684); experiment: Inhibition of CYP3A4 activity in human hepatocytes after 30 mins by liquid chromatography/tandem mass spectroscopy; type: ADME, cell-based, Hepatocyte
CYP2C19 = CYP2C19 (Homo sapiens, UniProt P33261); experiment: Time dependent inhibition of CYP2C19 activity in human hepatocytes after 30 mins by liquid chromatography/tandem mass spectroscopy; type: ADME, cell-based, Hepatocyte
CYP2C8 = biological target: T2, CYP2C8 (Homo sapiens, UniProt P10632); experiment: Time dependent inhibition of CYP2C8 activity in human hepatocytes after 30 mins by liquid chromatography/tandem mass spectroscopy; type: ADME, cell-based, Hepatocyte
T2 sequence (P10632 whole entry): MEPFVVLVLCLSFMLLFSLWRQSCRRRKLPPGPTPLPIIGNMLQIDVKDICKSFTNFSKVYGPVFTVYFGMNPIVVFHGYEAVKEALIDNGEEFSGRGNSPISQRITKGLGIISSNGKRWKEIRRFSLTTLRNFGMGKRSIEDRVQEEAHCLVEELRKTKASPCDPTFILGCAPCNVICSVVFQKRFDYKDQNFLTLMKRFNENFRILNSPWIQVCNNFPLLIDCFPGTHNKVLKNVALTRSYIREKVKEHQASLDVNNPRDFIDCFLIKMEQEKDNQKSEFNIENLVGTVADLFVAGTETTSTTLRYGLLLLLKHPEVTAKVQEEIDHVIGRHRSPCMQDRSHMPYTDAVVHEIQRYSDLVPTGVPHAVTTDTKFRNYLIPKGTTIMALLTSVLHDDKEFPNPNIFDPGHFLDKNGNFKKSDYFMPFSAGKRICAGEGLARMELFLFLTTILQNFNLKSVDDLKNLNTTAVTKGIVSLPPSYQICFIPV

Hepatocyte [7] = experiment: Cytotoxicity against human hepatocytes assessed as reduction in cell viability after 4 hrs by ATP detection based assay
[8] = Cytotoxicity against human hepatocytes assessed as cell viability after 24 hrs at 100 uM by ATP detection based assay; parameters: species or system Hepatocyte; conditions: read-out: Activity
CYP1A2 = biological target: T3, CYP1A2 (Homo sapiens, UniProt P05177); experiment: Time dependent inhibition of CYP1A2 activity in human hepatocytes after 30 mins by liquid chromatography/tandem mass spectroscopy; type: ADME, cell-based, Hepatocyte
T3 sequence (P05177 whole entry): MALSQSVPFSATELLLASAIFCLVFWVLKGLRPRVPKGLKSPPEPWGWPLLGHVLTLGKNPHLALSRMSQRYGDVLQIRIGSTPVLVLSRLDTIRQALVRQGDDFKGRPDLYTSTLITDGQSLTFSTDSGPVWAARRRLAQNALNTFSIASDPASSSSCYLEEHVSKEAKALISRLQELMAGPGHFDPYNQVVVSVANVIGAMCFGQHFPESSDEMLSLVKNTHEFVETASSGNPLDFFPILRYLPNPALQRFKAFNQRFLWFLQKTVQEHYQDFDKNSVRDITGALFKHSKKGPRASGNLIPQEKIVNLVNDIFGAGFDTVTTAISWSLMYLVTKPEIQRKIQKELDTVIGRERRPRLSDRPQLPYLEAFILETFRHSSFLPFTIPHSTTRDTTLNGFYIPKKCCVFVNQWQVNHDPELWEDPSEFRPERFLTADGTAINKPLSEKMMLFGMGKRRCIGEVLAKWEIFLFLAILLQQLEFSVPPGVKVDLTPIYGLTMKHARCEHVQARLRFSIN

CYP3A4 [9] = experiment: Induction of CYP3A4 mRNA expression in human hepatocytes at 10 uM after 48 hrs relative to untreated control; type: ADME, cell-based, Hepatocyte; conditions: read-out: FC
CYP2C9 = CYP2C9 (Homo sapiens, UniProt P11712); experiment: Time dependent inhibition of CYP2C9 activity in human hepatocytes after 30 mins by liquid chromatography/tandem mass spectroscopy; type: ADME, cell-based, Hepatocyte
CYP3A4 [10] = biological target: CYP3A4 (Homo sapiens, UniProt P08684); experiment: Time dependent inhibition of CYP3A4 activity in human hepatocytes after 30 mins by liquid chromatography/tandem mass spectroscopy; type: ADME, cell-based, Hepatocyte
Hepatocyte [11] = experiment: Cytotoxicity against human hepatocytes assessed as cytoplasm granulation with vacuoles after 24 hrs at 50 to 100 uM; type: cell-based
SULT2A1 = experiment: Induction of SULT2A1 mRNA expression in human hepatocytes at 10 uM after 48 hrs relative to untreated control; type: cell-based, Hepatocyte; conditions: read-out: FC
Cytochrome P450 2C9 = Cytochrome P450 2C9 (Homo sapiens, UniProt P11712); experiment: Inhibition of CYP2C9 activity in human hepatocytes after 30 mins by liquid chromatography/tandem mass spectroscopy; type: ADME, cell-based, Hepatocyte
Hepatocyte [12] = experiment: Cytotoxicity against human hepatocytes assessed as reduction in cell viability after 4 hrs by LDH release assay; type: cell-based

CYP2D6, sequence (P10635 whole entry): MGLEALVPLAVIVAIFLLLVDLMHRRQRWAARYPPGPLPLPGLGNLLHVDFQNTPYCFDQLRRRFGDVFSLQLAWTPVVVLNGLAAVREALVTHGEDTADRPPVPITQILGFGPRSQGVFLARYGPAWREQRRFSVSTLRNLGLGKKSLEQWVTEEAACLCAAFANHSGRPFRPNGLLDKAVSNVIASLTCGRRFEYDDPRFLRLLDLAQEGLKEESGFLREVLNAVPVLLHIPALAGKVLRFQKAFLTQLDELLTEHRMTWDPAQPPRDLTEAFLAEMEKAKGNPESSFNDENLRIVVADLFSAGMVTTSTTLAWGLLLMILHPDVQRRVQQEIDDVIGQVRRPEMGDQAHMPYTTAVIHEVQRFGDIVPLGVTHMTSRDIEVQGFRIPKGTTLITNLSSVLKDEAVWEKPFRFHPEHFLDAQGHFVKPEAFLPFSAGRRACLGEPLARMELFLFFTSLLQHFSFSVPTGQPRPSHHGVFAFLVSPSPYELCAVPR
CYP3A4 (Homo sapiens, UniProt P08684), sequence (P08684 whole entry): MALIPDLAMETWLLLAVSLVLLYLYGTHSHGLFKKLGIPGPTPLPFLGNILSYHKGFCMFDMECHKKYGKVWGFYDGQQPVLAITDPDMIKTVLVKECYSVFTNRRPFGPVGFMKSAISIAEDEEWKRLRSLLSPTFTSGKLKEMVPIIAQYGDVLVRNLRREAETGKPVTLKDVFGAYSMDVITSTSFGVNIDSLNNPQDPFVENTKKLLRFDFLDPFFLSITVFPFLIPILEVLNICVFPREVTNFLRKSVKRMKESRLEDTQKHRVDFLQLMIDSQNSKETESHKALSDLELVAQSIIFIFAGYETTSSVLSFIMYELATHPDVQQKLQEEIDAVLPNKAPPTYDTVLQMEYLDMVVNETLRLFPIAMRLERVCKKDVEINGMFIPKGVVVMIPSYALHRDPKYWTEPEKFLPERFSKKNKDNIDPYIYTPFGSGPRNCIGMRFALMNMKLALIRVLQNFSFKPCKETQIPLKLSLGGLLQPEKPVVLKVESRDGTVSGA
Cytochrome P450 3A4, sequence (P08684 whole entry): as above
CYP2C19, sequence (P33261 whole entry): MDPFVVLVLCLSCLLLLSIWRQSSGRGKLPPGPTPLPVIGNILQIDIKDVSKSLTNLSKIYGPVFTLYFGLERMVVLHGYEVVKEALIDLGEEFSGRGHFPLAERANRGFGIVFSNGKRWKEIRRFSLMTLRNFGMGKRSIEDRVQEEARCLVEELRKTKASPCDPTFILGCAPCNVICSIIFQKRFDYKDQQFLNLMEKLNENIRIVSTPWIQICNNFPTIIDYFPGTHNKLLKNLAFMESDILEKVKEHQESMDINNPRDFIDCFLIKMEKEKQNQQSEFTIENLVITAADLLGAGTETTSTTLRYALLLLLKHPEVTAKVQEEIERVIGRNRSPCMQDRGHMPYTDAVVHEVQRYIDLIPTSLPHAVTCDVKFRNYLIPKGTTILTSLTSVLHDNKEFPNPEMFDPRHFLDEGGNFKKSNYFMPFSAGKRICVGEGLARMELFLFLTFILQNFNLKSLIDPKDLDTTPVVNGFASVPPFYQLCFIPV
Cytochrome P450 2C9, sequence (P11712 whole entry): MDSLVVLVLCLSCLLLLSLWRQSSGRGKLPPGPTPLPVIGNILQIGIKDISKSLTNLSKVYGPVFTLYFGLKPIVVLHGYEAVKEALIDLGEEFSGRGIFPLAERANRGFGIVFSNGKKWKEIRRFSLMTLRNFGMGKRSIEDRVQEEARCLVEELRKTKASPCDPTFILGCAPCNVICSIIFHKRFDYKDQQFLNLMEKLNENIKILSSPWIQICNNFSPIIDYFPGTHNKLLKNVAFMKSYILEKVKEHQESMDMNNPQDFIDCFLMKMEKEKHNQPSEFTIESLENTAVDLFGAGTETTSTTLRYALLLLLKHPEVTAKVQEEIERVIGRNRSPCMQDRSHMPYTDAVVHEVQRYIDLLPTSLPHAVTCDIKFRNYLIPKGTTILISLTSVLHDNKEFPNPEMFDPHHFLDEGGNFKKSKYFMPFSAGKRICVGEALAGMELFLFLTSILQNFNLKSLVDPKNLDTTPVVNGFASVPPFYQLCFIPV
CYP2C9, sequence (P11712 whole entry): as above
CYP2E1, sequence (P05181 whole entry): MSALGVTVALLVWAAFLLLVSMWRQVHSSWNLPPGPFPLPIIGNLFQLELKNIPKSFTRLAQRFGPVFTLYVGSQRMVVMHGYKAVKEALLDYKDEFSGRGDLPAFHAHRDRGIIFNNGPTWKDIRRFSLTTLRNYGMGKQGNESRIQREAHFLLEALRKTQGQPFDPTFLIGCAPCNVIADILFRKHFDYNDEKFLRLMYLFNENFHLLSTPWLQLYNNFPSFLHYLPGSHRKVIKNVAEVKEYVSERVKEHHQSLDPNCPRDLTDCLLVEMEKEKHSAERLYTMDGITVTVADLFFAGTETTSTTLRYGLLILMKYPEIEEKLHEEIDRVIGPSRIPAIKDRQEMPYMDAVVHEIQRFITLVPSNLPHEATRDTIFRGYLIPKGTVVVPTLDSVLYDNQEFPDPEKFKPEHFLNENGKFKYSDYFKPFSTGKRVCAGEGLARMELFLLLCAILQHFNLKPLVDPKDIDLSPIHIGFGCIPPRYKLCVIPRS

Work on CC(C)c1cc2c(c(O)c1O)[C@@]1(C(=O)O)CCCC(C)(C)[C@@H]1CC2 [CARNOSIC ACID] yielded an inhibition at 0.5 h (CYP2E1) of under 11%, an EC50 (Hepatocyte [1]) of 94.8 µM and an inhibition at 0.5 h (CYP2D6) of under 11%. The EC50 (Hepatocyte [2]) was “Not Active”, the inhibition at 0.5 h (CYP2B6 [3]) was under 11% and the Activity (Hepatocyte [4]) was “Toxic”. For the same compound, the fold induction at 48 h, 10 µM (CYP2B6 [5]) was 4.5, the Activity (Hepatocyte [6]) was “Non-toxic” and the Ki (Cytochrome P450 3A4) was 4.3 µM. For the same compound, the inhibition at 0.5 h (CYP2C19) was under 11%, the inhibition at 0.5 h (CYP2C8) was under 11% and the EC50 (Hepatocyte [7]) was 95.7 µM. It also gave a viability at 24 h, 100 µM [8] of under 10%, an inhibition at 0.5 h (CYP1A2) of under 11% and a fold induction at 48 h, 10 µM (CYP3A4 [9]) of 13.9. For the same compound, the inhibition at 0.5 h (CYP2C9) was under 11%, the inhibition at 0.5 h (CYP3A4 [10]) was under 11% and the Activity (Hepatocyte [11]) was “Toxic”. For the same compound, the fold induction at 48 h, 10 µM (SULT2A1) was 2.4 and the Ki (Cytochrome P450 2C9) was 9.2 µM.
With CC/C(=C(\c1ccccc1)c1ccc(OCCN(C)C)cc1)c1ccccc1 [TAMOXIFEN] the EC50 (Hepatocyte [1]) was 34.4 µM, the EC50 (Hepatocyte [2]) was “Not Active” and the EC50 (Hepatocyte [12]) was 67.6 µM. For the same compound, the Activity (Hepatocyte [6]) was “Toxic” and the EC50 (Hepatocyte [7]) was 71.4 µM.
